# Literature values, collected in patent US8957276B2 (priority 2009, dated 2015).
# Tested on: Rat
# Settings: in vivo, po
row,Structure (SMILES),Acute toxicity (LD50)
1,[CH3][Hg][CH3] [(CH3)2Hg],26 mg/kg
2,[Cl][Hg].[Cl][Hg] [Hg2Cl2],210 mg/kg
3,"[Cl][Hg][Cl] [HgCl2, mercury chloride (II)]",1 mg/kg
4,[Cl][Hg] [HgCl],210 mg/kg
5,"[O]=[Hg] [HgO, mercury oxide]",18 mg/kg

# Tested on: Human
# Settings: in vivo, po
row,Structure (SMILES),Acute toxicity (LD50)
1,"[Hg] [Hg, metallic mercury]",43 mg/kg
